Here are results for four substances from patent US8012945B2, “Phage antibodies to radiation-inducible neoantigens” (Vanderbilt University, priority 2001, dated 2011).

Assay [1] concerns the target T1, GP-IIb/IIIa receptors on activated platelets (Homo sapiens, UniProt P05106+P08514).
T1 construct: endogenous in cells; host or cells: platelets in irradiated tumours of patients (in vivo imaging)
The experiment in a line: Clinical trial of x-ray-guided delivery, gamma camera/SPECT imaging of ^99mTc-labeled biapcitide. Format: in vivo. As to the method:
Biapcitide (ACUTECT® available from Diatide, Inc., Londonderry, N.H., United States of America) is a synthetic peptide that binds to GP-IIb/IIIa receptors on activated platelets (Hawiger et al., 1989; Hawiger & Timmons, 1992). Biapcitide was labeled with ^99mTc in accordance with a protocol provided by Diatide Inc.
Reconstituted ^99mTc-labeled biapcitide was administered to patients at a dose of 100 mcg of biapcitide radiolabeled with 10 millicuries (mCi) of ^99mTc. […] Patients were then treated with 10 Gy or more. Patients underwent gamma camera imaging prior to irradiation and 24 hours following irradiation. Following planar image acquisition, those patients showing uptake in irradiated tumors underwent tomographic imaging using SPECT and repeat imaging at 24 hours. Patients showing no uptake on planer images during this 24-hour time frame had no further imaging.
Patients were treated with X-irradiation ranging from 4 to 18 MV photon using external beam linear accelerator at Vanderbilt University. Appropriate blocks, wedges and bolus to deliver adequate dose to the planned target volume was utilized. The site of irradiation, treatment intent and normal tissue considerations determined the radiation dosage and volume. When stereotactic radiosurgery was used, the dose was prescribed to the tumor periphery.
Image Analysis. Image acquisition consisted of both planar and single photon emission computed tomography (SPECT) studies. […] The spatial distribution of […] within the planar image was measured using region of interest (ROI) analysis. […] The rationale for using ROIs with different dimensions is to be able to quantify image counts while at the same time isolating any possible influence of ROI size on the results. […] Background counts was determined based on ROI analysis of a separate planar acquisition performed in the absence of a radioactive source.
Three-dimensional nuclear medicine SPECT examinations were performed using the same dual-head gamma camera system. […] SPECT tumor-to-background ratios were computed using quantitative ROI techniques identical to the planar studies.

Another assay concerns B16F0 tumors. The experiment in a line: Biotinylated dodecapeptide binding in B16F0 hind limb tumors, Avidin-FITC staining. Format: in vivo, mice. The text has this:
Observations. The peptide sequence within fibrinogen that binds to the activated GPIIb/IIIa receptor is the dodecapeptide […] (SEQ ID NO: 16). To determine whether […] (SEQ ID NO: 16) binds in irradiated tumors, applicant utilized the peptide […] (SEQ ID NO: 16) linked to biotin by a serine-glycine linker ([…]-SGSGSK-biotin; SEQ ID NO: 30). This peptide was synthesized in the Vanderbilt University Peptide Core Lab and biotinylated at the carboxyl terminus. The resulting […]-SGSGSK-biotin (SEQ ID NO: 30) was administered by tail vein injection into tumor bearing mice. B16F0 tumors in the hind limb were treated with sham irradiation (control), 4 Gy irradiation followed by […]-SGSGSK-biotin (SEQ ID NO: 30) injection, or […]-SGSGSK-biotin (SEQ ID NO: 30) followed by tumor irradiation (4 Gy). Tumors were frozen at 4 hours and sectioned for fluorescence staining. Avidin-FITC was incubated with tumor sections and imaged by UV microscopy.

A further assay concerns the target T2, α2bβ3 receptor (Mus musculus, UniProt O54890+Q9QUM0).
T2 construct: from tissue; host or cells: irradiated tumours (blood vessels and platelets) in living mice
T2 sequence (Q9QUM0 32-1033): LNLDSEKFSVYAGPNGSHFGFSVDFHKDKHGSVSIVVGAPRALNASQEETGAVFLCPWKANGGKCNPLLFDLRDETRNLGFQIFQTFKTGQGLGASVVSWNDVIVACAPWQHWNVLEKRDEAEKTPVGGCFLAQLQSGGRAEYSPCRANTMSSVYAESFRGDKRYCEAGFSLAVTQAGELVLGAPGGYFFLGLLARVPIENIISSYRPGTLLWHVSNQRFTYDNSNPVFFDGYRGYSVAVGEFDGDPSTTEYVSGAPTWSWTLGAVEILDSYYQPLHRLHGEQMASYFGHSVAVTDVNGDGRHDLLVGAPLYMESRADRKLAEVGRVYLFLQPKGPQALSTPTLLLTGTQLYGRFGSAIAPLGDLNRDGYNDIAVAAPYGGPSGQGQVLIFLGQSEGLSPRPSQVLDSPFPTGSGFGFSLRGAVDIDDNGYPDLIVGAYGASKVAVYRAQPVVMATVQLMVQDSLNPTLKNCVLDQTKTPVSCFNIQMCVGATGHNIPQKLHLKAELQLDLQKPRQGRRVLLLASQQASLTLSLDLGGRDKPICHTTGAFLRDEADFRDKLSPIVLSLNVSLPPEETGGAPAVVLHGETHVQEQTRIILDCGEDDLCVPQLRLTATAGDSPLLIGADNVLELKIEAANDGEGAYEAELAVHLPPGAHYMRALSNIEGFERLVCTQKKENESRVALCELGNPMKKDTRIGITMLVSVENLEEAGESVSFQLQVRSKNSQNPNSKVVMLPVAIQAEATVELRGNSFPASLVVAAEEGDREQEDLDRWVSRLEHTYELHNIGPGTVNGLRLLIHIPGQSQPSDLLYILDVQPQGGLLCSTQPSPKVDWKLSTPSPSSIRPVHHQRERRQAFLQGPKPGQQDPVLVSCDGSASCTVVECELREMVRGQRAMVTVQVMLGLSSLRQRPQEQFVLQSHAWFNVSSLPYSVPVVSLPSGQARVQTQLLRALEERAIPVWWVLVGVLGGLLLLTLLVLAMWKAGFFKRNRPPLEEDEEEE
T2 sequence (O54890 26-787): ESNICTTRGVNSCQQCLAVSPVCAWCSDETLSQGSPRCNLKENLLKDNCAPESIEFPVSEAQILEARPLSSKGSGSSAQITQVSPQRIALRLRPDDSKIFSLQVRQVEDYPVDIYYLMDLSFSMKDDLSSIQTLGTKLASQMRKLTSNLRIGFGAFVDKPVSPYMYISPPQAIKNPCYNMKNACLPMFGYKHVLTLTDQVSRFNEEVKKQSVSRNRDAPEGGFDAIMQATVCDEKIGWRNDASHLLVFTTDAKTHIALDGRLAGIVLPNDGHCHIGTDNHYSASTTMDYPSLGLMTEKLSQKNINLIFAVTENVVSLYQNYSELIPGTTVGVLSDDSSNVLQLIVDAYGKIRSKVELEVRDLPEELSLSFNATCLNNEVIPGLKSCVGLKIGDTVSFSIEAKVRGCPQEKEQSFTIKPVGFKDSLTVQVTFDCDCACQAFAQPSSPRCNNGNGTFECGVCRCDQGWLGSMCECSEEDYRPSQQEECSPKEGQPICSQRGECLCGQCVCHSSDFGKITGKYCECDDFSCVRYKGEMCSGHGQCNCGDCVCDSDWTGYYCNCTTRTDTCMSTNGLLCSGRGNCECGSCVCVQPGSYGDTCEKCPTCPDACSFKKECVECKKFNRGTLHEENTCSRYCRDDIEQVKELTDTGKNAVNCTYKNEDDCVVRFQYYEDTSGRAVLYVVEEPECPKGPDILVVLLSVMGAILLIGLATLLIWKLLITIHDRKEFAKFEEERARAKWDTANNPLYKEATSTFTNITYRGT
The experiment in a line: Recombinant phage binding in irradiated tumors after blocking antibody, plaque formation. Format: in vivo. The following applies: phage quantified by plaque formation. As to the method:
The anti-[…]2b[…]3 monoclonal antibody was administered by tail vein to determine whether this receptor is required for recombinant phage binding in irradiated tumors. Phage encoding […] (SEQ ID NO: 5) on the capsid protein were injected immediately after blocking antibody or control antibody. Phage were recovered from the tumor and controls organs and quantified by plaque formation. Radiation induced a 4-fold increase in phage binding in tumor. […] Thus, the tumor binding activity of targeting peptide […] (SEQ ID NO: 5) is dependent on its interaction with the α2bβ3 receptor.

T1 sequence (P08514 32-887 limits assumed): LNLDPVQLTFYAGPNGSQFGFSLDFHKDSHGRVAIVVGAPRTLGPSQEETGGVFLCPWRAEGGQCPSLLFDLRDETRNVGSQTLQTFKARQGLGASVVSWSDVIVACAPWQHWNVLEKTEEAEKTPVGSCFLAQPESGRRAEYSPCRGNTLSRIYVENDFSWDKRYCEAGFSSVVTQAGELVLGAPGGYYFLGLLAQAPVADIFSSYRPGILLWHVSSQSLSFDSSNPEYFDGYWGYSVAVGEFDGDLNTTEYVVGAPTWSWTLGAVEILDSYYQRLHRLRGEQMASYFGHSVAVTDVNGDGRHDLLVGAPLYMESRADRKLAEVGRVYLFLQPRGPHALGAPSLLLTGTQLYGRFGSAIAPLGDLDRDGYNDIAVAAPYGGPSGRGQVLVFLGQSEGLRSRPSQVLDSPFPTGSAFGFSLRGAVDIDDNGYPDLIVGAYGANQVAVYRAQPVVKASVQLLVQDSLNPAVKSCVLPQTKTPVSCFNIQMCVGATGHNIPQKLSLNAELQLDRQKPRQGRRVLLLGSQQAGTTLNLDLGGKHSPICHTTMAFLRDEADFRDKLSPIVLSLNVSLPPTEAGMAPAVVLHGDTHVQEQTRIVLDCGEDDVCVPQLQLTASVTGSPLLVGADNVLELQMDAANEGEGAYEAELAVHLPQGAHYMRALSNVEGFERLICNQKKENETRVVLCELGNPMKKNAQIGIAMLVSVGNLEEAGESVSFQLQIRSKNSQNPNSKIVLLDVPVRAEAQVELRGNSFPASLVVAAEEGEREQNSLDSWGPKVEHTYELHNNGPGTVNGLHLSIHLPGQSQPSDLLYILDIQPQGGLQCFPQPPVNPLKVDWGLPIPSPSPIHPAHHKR
T1 sequence (P08514 891-1039 partner limits assumed): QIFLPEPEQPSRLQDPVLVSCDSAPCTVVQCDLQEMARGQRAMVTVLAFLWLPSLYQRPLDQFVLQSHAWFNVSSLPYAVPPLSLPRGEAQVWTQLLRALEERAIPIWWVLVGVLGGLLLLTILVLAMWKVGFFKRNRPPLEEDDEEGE
T1 sequence (P05106 27-788): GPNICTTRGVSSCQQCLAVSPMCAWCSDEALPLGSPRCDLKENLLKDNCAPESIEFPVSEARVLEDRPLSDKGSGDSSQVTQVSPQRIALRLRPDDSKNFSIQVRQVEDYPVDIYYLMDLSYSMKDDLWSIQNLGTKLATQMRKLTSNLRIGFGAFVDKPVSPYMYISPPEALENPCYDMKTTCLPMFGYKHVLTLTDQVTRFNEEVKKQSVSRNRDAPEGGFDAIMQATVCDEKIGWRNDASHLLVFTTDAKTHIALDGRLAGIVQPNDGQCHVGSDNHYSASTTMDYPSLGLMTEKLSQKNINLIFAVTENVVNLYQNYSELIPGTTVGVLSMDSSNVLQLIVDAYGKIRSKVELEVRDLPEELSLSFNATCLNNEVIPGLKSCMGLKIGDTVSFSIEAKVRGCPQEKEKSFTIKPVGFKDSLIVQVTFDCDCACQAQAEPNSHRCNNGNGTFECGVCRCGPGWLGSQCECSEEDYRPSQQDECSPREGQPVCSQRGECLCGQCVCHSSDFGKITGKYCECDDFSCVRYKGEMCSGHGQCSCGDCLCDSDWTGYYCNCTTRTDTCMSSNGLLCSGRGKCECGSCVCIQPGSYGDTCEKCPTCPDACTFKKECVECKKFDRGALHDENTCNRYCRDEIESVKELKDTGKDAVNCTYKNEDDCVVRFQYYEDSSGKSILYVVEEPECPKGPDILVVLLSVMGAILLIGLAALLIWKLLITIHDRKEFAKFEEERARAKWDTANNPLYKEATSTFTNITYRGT

Regarding Biapcitide [^99mTc-labeled biapticide], in assay [1] (administered immediately prior to radiation), the tumor binding is 4 of 4. The “localization to the tumor” value in assay [1] (administered within one hour following radiation) is “failed to show localization”. For the same substance, the “binding in untreated tumor” value in assay [1] (second neoplasms not treated with radiation, two patients) is “not observed”. For “HHLGGAKQAGDV (Artificial peptide ligand number 16) [dodecapeptide, segment of the γ subunit of fibrinogen]”, the “efficiency of schedule of administration” value in the assay on B16F0 tumors (administration prior to irradiation compared to radiation before administration) was “administration prior to irradiation is a more efficient schedule”. On to HHLGGAKQAGDV-SGSGSK-biotin, for which the “Avidin-FITC staining of tumor sections, irradiated tumors” value in the assay with B16F0 tumors (4 Gy, tumors frozen at 4 hours) was “Avidin-FITC stained blood vessels were observed”. Also, the “Avidin-FITC staining of tumor sections, untreated control” value in the assay with B16F0 tumors (sham irradiation) is listed as “not in untreated control”.

“SLRGDGSSV (phage-displayed; Artificial peptide ligand number 5)”: the “radiation-induced increase in phage binding in tumor” value in the assay with α2bβ3 receptor worked out at 4 fold.
